Test results: patent US11319298B2 (Merck Sharp & Dohme Corp., priority 2016, dated 2022)

Target: T1, human M4 muscarinic acetylcholine receptor (Homo sapiens, UniProt P08173)
T1 construct: expressed in transfected cells; host or cells: CHO-K1
T1 sequence (P08173 1-479): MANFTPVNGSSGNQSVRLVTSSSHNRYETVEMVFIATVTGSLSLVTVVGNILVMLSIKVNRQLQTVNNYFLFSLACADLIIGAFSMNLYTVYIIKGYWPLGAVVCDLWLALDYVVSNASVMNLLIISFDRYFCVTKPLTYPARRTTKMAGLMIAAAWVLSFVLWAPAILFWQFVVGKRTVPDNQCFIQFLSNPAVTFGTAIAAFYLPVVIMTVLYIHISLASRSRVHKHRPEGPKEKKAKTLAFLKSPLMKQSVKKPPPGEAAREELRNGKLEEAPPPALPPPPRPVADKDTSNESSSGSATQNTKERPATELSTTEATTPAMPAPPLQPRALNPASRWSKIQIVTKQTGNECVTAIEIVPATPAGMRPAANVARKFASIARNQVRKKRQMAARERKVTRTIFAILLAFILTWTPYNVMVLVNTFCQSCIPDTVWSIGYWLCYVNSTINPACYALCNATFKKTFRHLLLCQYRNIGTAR
Assay: human FLIPR-based M4 PAM assay, CHO-K1 cells stably transfected with human M4 receptor and chimeric G-protein Gαqi5
Assay type: cell-based
Conditions: inflection point (IP) of dose response curve; acetylcholine added at 20% of maximum response; CHO-K1 human M4/Gαqi5, FLIPR Tetra
Experimental: In a typical experiment the M4 muscarinic acetylcholine receptor modulating activity of the compounds of the present invention was determined in accordance with the following experimental method. CHO-K1 cells stably transfected with human M4 receptor and chimeric G-protein Gαqi5 (Coward P, et al., Analytical Biochemistry, 270:242-248 (1999)) are thawed from liquid N2 storage, resuspended in growth medium, plated in black, clear bottom 384 well plates, and incubated 16-20 hours at 37° C., 5% CO2. On the day of assay, growth medium is removed, the cells are washed 2 times with wash buffer, and cells are incubated in dye loading buffer at 37° C., 5% CO2 for ˜1 hour. Following dye loading the cell plates are placed in a FLIPR Tetra instrument and while monitoring dye fluorescence (excitation […]), 10 uL of test substance at increasing concentrations is added, and fluorescence values are recorded for 4 min. Next, 10 uL of acetylcholine is added (final concentration calculated so as to achieve 20% of the maximum acetycholine response), and the fluorescence reading is continued for 3.5 min. In some cases, a third addition of acetylcholine (final concentration calculated to achieve 70% of the maximal acetylcholine response) is performed. The resulting dose response curves are fit to a 4 parameter logistic equation and the final result is determined as the inflection point (IP) of the curve
CHO-K1 cells stably transfected with human M4 receptor and chimeric G-protein Gαqi5 are thawed from liquid N2 storage, resuspended in growth medium, plated in black, clear bottom 384 well plates, and incubated 16-20 hours at 37° C., 5% CO2.
On the day of assay, growth medium is removed, the cells are washed 2 times with wash buffer, and cells are incubated in dye loading buffer at 37° C., 5% CO2 for ˜1 h. Following dye loading the cell plates are placed in a FLIPR Tetra instrument and while monitoring dye fluorescence ([…]), 10 uL of test substance at increasing concentrations is added, and fluorescence values are recorded for 4 min. Next, 10 uL of acetylcholine is added (final concentration calculated so as to achieve 20% of the maximum acetycholine response), and the fluorescence reading is continued for 3.5 min. In some cases, a third addition of acetylcholine (final concentration calculated to achieve 70% of the maximal acetylcholine response) is performed.

Row | Molecule | EC50
1 | COc1ccc(OC2CCN(c3nnc(C(=O)NC4CCc5cccnc5C4)cc3C)CC2)cn1 (stereo not drawn) [Example 136, 6-{4-[(6-methoxypyridin-3-yl)oxy]piperidin-1-yl}-5-methyl-N-(5,6,7,8-tetrahydroquinolin-7-yl)pyridazine-3-carboxamide] | 173 nM
2 | Cc1c(Cl)nc(CO)nc1N1CCC(Oc2ccc3c(c2)OCCO3)CC1 [Example 92, (4-chloro-6-(4-((2,3-dihydrobenzo[b][1,4]dioxin-6-yl)oxy)piperidin-1-yl)-5-methylpyrimidin-2-yl)methanol] | 29 nM
3 | COc1ccc(OC2CCN(c3ncnc(-c4ccc(F)cc4)c3C)CC2)cn1 [Example 257, 4-(4-fluorophenyl)-6-(4-((6-methoxypyridin-3-yl)oxy)piperidin-1-yl)-5-methylpyrimidine] | 2700 nM
4 | COc1ccc(OC2CCN(c3nnc(-c4noc(C)n4)cc3C)CC2)cn1 [Example 264, 3-(6-(4-((6-Methoxypyridin-3-yl)oxy)piperidin-1-yl)-5-methylpyridazin-3-yl)-5-methyl-1,2,4-oxadiazole] | 399 nM
5 | Cc1nc(Cl)c(C)c(N2CCC(Oc3cccc(C#N)c3)CC2)n1 [Example 55, 3-((1-(6-chloro-2,5-dimethylpyrimidin-4-yl)piperidin-4-yl)oxy)benzonitrile] | 59 nM
6 | Cc1cc(C(=O)NCc2ccncc2)nnc1N1CCC(Oc2ccc3c(c2)OCCO3)CC1 [Example 108, 6-[4-(2,3-dihydro-1,4-benzodioxin-6-yloxy)piperidin-1-yl]-5-methyl-N-(pyridin-4-ylmethyl)pyridazine-3-carboxamide] | 18 nM
7 | Cc1cc(C(=O)NCc2ccncc2)nnc1N1CC[C@@H](Oc2cccc(C#N)c2)[C@@H](F)C1 [Example 115, 6-[(3S,4R)-4-(3-cyanophenoxy)-3-fluoropiperidin-1-yl]-5-methyl-N-(pyridin-4-ylmethyl)pyridazine-3-carboxamide] | 61 nM
8 | COc1ccc(OC2CCN(c3ncnc(N(C)CCc4ccccn4)c3C)CC2)cn1 [Example 240, 6-(4-((6-methoxypyridin-3-yl)oxy)piperidin-1-yl)-N,5-dimethyl-N-(2-(pyridin-2-yl)ethyl)pyrimidin-4-amine] | 413 nM
9 | COc1ccc(OC2CCN(c3nc(C(=O)NCc4cnsc4)nc(Cl)c3C)CC2)cn1 [Example 225, 4-chloro-N-(isothiazol-4-ylmethyl)-6-(4-((6-methoxypyridin-3-yl)oxy)piperidin-1-yl)-5-methylpyrimidine-2-carboxamide] | 321 nM
10 | COc1ccc(OC2CCN(c3nnc(C(=O)NCc4ccccc4OC)cc3C)CC2)cn1 [Example 158, N-(2-methoxybenzyl)-6-{4-[(6-methoxypyridin-3-yl)oxy]piperidin-1-yl}-5-methylpyridazine-3-carboxamide] | 282 nM
11 | COc1ccc(OC2CCN(c3ncnc(CC(C)C)c3C)CC2)cn1 [Example 255, 4-isobutyl-6-(4-((6-methoxypyridin-3-yl)oxy)piperidin-1-yl)-5-methylpyrimidine] | 2520 nM
12 | 6-((1-(6-chloro-2-(hydroxymethyl)-5-methylpyrimidin-4-yl)piperidin-4-yl)oxy)-2-cyclopropylisoindolin-1-one [Example 32] | 185 nM
13 | Cc1cc(C(=O)NCc2ccncc2)nnc1N1CCC(Oc2ccccc2)CC1 [Example 114, 5-methyl-6-(4-phenoxypiperidin-1-yl)-N-(pyridin-4-ylmethyl)pyridazine-3-carboxamide] | 53 nM
14 | Cc1cc(C(=O)NC2C3CC2C3)nnc1N1CCC(Oc2ccc3c(c2)OCCO3)CC1 (stereo not drawn) [Example 131, N-bicyclo[1.1.1]pent-2-yl-6-[4-(2,3-dihydro-1,4-benzodioxin-6-yloxy)piperidin-1-yl]-5-methylpyridazine-3-carboxamide] | 127 nM
15 | COc1ncc(OC2CCN(c3nc(CO)nc(Cl)c3C)CC2)cc1F [Example 54, (4-chloro-6-(4-((5-fluoro-6-methoxypyridin-3-yl)oxy)piperidin-1-yl)-5-methylpyrimidin-2-yl)methanol] | 55 nM
16 | Cc1nc2cc(OC3CCN(c4nc(CO)nc(Cl)c4C)CC3)ccc2s1 [Example 44, 4(4-chloro-5-methyl-6-(4-((2-methylbenzo[d]thiazol-5-yl)oxy)piperidin-1-yl)pyrimidin-2-yl)methanol] | 446 nM
17 | COc1ccc(OC2CCN(c3ncnc(N4CC5CC4CO5)c3C)CC2)cn1 (stereo not drawn) [Example 238, 5-(6-(4-((6-methoxypyridin-3-yl)oxy)piperidin-1-yl)-5-methylpyrimidin-4-yl)-2-oxa-5-azabicyclo[2.2.1]heptane] | 3060 nM
18 | CONC(=O)c1cc(C)c(N2CCC(Oc3ccc(OC)nc3)CC2)nn1 [Example 128, N-methoxy-6-{4-[(6-methoxypyridin-3-yl)oxy]piperidin-1-yl}-5-methylpyridazine-3-carboxamide] | 121 nM
19 | COCc1nc(Cl)c(C)c(N2CCC(Oc3ccc(OC)cc3)CC2)n1 [Example 61, 4-chloro-2-(methoxymethyl)-6-(4-(4-methoxyphenoxy)piperidin-1-yl)-5-methylpyrimidine] | 84 nM
20 | Cc1c(Cl)nc(CO)nc1N1CC[C@@H](Oc2ccc3c(c2)C(=O)N(C)C3)[C@@H](F)C1 [Example 43, 6-(((3S,4R)-1-(6-chloro-2-(hydroxymethyl)-5-methylpyrimidin-4-yl)-3-fluoropiperidin-4-yl)oxy)-2-methylisoindolin-1-one] | 378 nM
21 | COc1ccc(OC2CCN(c3nnc(C(=O)NCc4cc(C)n(C)n4)cc3C)CC2)cn1 [Example 155, N-[(1,5-dimethyl-1H-pyrazol-3-yl)methyl]-6-{4-[(6-methoxypyridin-3-yl)oxy]piperidin-1-yl}-5-methylpyridazine-3-carboxamide] | 265 nM
22 | Cc1c(Cl)nc(CO)nc1N1CCC(Oc2ccc3c(c2)C(=O)N(C)C3)CC1 [Example 33, 6-((1-(6-chloro-2-(hydroxymethyl)-5-methypyrimidin-4-yl)piperidin-4-yl)oxy)-2-methylisoindolin-1-one] | 210 nM
23 | Cc1c(Cl)nc(CO)nc1N1CCC(Oc2ccc3c(c2)NCCC3)CC1 [Example 35, (4-chloro-5-methyl-6-(4-((1,2,3,4-tetrahydroquinolin-7-yl)oxy)piperidin-1-yl)pyrimidin-2-yl)methanol] | 220 nM
24 | COc1ccc(OC2CCN(c3nnc(-c4nc(C)no4)cc3C)CC2)cn1 [Example 28, 5-(6-(4-((6-methoxypyridin-3-yl)oxy)piperidin-1-yl)-5-methylpyridazin-3-yl)-3-methyl-1,2,4-oxadiazole] | 119 nM
25 | Cc1c(Cl)nc(CO)nc1N1CCC(Oc2ccc3c(c2)OCCN3)CC1 [Example 96, (4-Chloro-6-(4-((3,4-dihydro-2H-benzo[b][1,4]oxazin-7-yl)oxy)piperidin-1-yl)-5-methylpyrimidin-2-yl)methanol] | 37 nM
26 | COc1ccc(OC2CCN(c3nnc(C(=O)Nc4ccncc4)cc3C)CC2)cn1 [Example 120, 6-{4-[(6-methoxypyridin-3-yl)oxy]piperidin-1-yl}-5-methyl-N-pyridin-4-ylpyridazine-3-carboxamide] | 96 nM
27 | Cc1ncc(C)c(N2CC[C@H](Oc3cccc(C#N)c3)[C@@H](F)C2)n1 [Example 83, 3-(((3S,4S)-1-(2,5-dimethylpyrimidin-4-yl)-3-fluoropiperidin-4-yl)oxy)benzonitrile] | 475 nM
